For orientation: IC50 means the concentration that gives 50% inhibition.

The subject of one series is HeLa#7. The series is described as follows: SRB drug sensitivity, spontaneously resistant HeLa#7. Format: cell-based, human. As to conditions: for IC50: Homo sapiens, HeLa#7, SRB, 72 hours with agent; for RR: Relative Resistance: IC50 HeLa#7 divided by IC50 HeLaS3.
A further series relates to HCT116/NR1. Put plainly: SRB drug sensitivity, Compound-A-resistant HCT116/NR1. The class given is cell-based, human. As to conditions: for IC50: Homo sapiens, HCT-116, HCT116/NR1, SRB, 72 hours with agent; for RR: Relative Resistance: IC50 HCT116/NR1 divided by IC50 HCT116. From the text:
An emerging colony was isolated and designated as HCT116/NR1.

For the next series, the system named is HCT116. The series is described as follows: SRB drug sensitivity, HCT116 parental cells. The class given is cell-based. As to conditions: Homo sapiens, HCT-116, 72 hours with agent.
The subject of a further series is LY/NR2. Put plainly: SRB drug sensitivity, Compound-A-resistant LY/NR2. The class given is cell-based, mouse. The settings on record: for RR: Relative Resistance: IC50 LY/NR2 divided by IC50 LY; for IC50: Mus musculus, LY/NR2, SRB, 72 hours with agent. The text has this:
An emerging colony was isolated as described above and designated as LY/NR2.

For a further series, the system named is LY/NR1. Put plainly: SRB drug sensitivity, Compound-A-resistant LY/NR1. Format: cell-based, mouse. The settings on record: for RR: Relative Resistance: IC50 LY/NR1 divided by IC50 LY; for IC50: Mus musculus, LY/NR1, SRB, 72 hours with agent. From the text:
A colony that grew under these conditions was isolated using a cloning ring (Asahi Techno Glass Corporation) and designated as LY/NR1.

The subject of the next series is PC-13/Vector. Put plainly: SRB drug sensitivity, PC-13 transfected with vector alone. Format: cell-based. The settings on record: Homo sapiens, average ± standard error of three independent experiments. On the procedure:
(§1) Test cells in the logarithmic growth phase were dispensed into wells of 96-well plate at 1×10^3 cells/well. After subculture for 24 hours in a CO2 incubator, a serial diluted agent was added to each well. After further incubation for 72 hours, the cells were fixed with trichloroacetic acid (TCA) and the proteins in the cells were stained by 0.4% sulforhodamine B solution. The samples were eluted by 10 mM Tris-HCl for 1 hour, and each well was measured at 560 nm with a 450 nm reference, by a SPECTRAmax 250 plate reader (Molecular Devices Corp.).
(§2) PC-13 cells were transfected with the ABCG2 expression plasmids using Effectene Transfection Reagent (QIAGEN). The experiment was performed according to the attached procedural manual. As a control experiment, other PC-13 cells were transfected with vector alone without the ABCG2 sequence. The two experiments were conducted simultaneously. Two days after the transfection, the original media were replaced with selection media containing 0.2 mg/ml of Geneticin (GIBCO BRL). By culture for a long time under this condition, stable transfectant clones with the introduced plasmids were selected. Two weeks from the transfection, emerging colonies were picked and expression of ABCG2 in the cells was examined by Northern Blot analysis.

The next series concerns PC13. Put plainly: SRB drug sensitivity, PC-13 parental cells. Format: cell-based. As to conditions: Homo sapiens, 72 hours with agent.
Another series deals with PC-13/ABCG2-3. Put plainly: SRB drug sensitivity, PC-13 transfected with ABCG2 (clone 3). Format: cell-based, human. As to conditions: IC50 PC-13/ABCG2-3 divided by IC50 of vector cells. On the procedure: as §1, §2
Series [1] has as its system ABCG2. Described as above. Format: cell-based, human. As to conditions: human; PC-13/ABCG2-3; average ± standard error of three independent experiments. On the procedure:
as §1, §2

Series [2] concerns PC-13 cell lines with introduced ABCG2. Put plainly: SRB drug sensitivity, PC-13 cell lines with introduced ABCG2 (stated jointly). The class given is cell-based, human. As to conditions: PC-13 cell lines with introduced ABCG2, versus vector alone. On the procedure:
as §1, §2

A further series relates to HeLaS3. The series is described as follows: SRB drug sensitivity, HeLaS3 (Compound-A-sensitive). Format: cell-based. As to conditions: Homo sapiens, HeLa S3, 72 hours with agent.
The test system of a further series is LY. The series is described as follows: SRB drug sensitivity, LY parental fibroblasts. Format: cell-based. The settings on record: Mus musculus, Fibroblast, 72 hours with agent.
Another series relates to PC-13/ABCG2-2. The series is described as follows: SRB drug sensitivity, PC-13 transfected with ABCG2 (clone 2). The class given is cell-based, human. The settings on record: IC50 PC-13/ABCG2-2 divided by IC50 of vector cells. On the procedure: as §1, §2
Series [3] concerns ABCG2. Described as above. The class given is cell-based, human. As to conditions: human; PC-13/ABCG2-2; average ± standard error of three independent experiments. On the procedure: as §1, §2
The test system of a further series is PC13/NR13. The series is described as follows: SRB drug sensitivity, Compound-A-resistant PC-13/NR13. Format: cell-based, human. The settings on record: for IC50: Homo sapiens, PC-13, PC13/NR13, SRB, 72 hours with agent; for RR: Relative Resistance: IC50 PC13/NR13 divided by IC50 PC13.

For the compound `COc1cc([C@@H]2c3cc4c(cc3[C@@H](O[C@@H]3O[C@@H]5CO[C@@H](C)O[C@H]5[C@H](O)[C@H]3O)[C@H]3COC(=O)[C@H]23)OCO4)cc(OC)c1O` [Etoposide], the IC50 in the series with HeLa#7 came to 930 nM; in the series with HCT116/NR1, 3400 nM; in the series on HCT116, 1100 nM; with LY/NR2, 2000 nM; with LY/NR1 it was 520 nM; in the series with PC-13/Vector, 1000 ± 290 nM. Besides, the IC50 came to 1200 nM in the series with PC13, 1200 nM in the series with HeLaS3, 280 nM with LY and 3000 nM with PC13/NR13. For the same compound, the “RR: Relative Resistance” value in the series on HeLa#7 was 0.79; with HCT116/NR1, 3.1; in the series with LY/NR2, 4.7; with LY/NR1 it was 2.1; in the series on PC13/NR13, 2.5. Also, the “Rel. Res. (relative resistance)” value is given as 1.1 in the series with PC-13/ABCG2-3 and 0.46 with PC-13/ABCG2-2. For the same compound, the IC50 at 72 h in the series on ABCG2 [1] turned out to be 1100 ± 330 nM; in the series with ABCG2 [3], 460 ± 75 nM. For the same compound, the “resistance of cells in which ABCG2 was forcedly expressed” value in series [2] was “did not display remarkable resistance”.

For `CC[C@]1(O)C[C@H]2CN(CCc3c([nH]c4ccccc34)[C@@](C(=O)OC)(c3cc4c(cc3OC)N(C=O)[C@H]3[C@@](O)(C(=O)OC)[C@H](OC(C)=O)[C@]5(CC)C=CCN6CC[C@]43[C@@H]65)C2)C1` [Vincristine], the IC50 in the series with HeLa#7 came to 6.9 nM; in the series on HCT116/NR1, 9.3 nM; with HCT116 it was 2 nM; in the series on LY/NR2, 25 nM; in the series with LY/NR1 it was 11 nM; in the series on PC13, 13 nM. Also, the IC50 in the series on HeLaS3 is 0.7 nM; with LY, 15 nM; in the series with PC13/NR13, 7 nM. In addition, the “RR: Relative Resistance” value worked out at 9.9 in the series with HeLa#7; 4.7 in the series with HCT116/NR1; 1.7 in the series with LY/NR2; 0.77 with LY/NR1; 0.56 in the series on PC13/NR13.

`CC[C@@]1(O)C(=O)OCc2c1cc1n(c2=O)Cc2cc3c(CN(C)C)c(O)ccc3nc2-1` [Topotecan]: the IC50 with HeLa#7 stood at 360 nM; in the series on HCT116, 34 nM; with LY/NR2, 2900 nM; in the series on LY/NR1, 250 nM; with PC-13/Vector, 210 ± 40 nM; in the series on PC13, 75 nM. Moreover, the IC50 turned out to be 63 nM in the series with HeLaS3, 69 nM with LY and 1100 nM in the series with PC13/NR13. Moreover, the concentration for half-maximal inhibition (IC50) at 72 h worked out at 96 ± 22 nM in the series with ABCG2 [1] and 190 ± 50 nM with ABCG2 [3]. The “resistance of cells in which ABCG2 was forcedly expressed” value in [2] is given as “did not display remarkable resistance”.

Consider `CC(=O)O[C@H]1C(=O)[C@@]2(C)[C@H]([C@H](OC(=O)c3ccccc3)[C@]3(O)C[C@H](OC(=O)[C@H](O)[C@@H](NC(=O)c4ccccc4)c4ccccc4)C(C)=C1C3(C)C)[C@]1(OC(C)=O)CO[C@@H]1C[C@@H]2O` [Paclitaxel], for which the IC50 in the series with HeLa#7 worked out at 4.2 nM; with HCT116/NR1, 2.1 nM; with HCT116, 1.1 nM; in the series with LY/NR2, 81 nM; with LY/NR1, 57 nM; in the series with PC13, 2 nM. Further, the IC50 worked out at 1 nM in the series with HeLaS3, 41 nM in the series with LY and 1.8 nM with PC13/NR13. Besides, the “RR: Relative Resistance” value came to 4.2 with HeLa#7; 1.9 with HCT116/NR1; 2.0 with LY/NR2; 1.4 with LY/NR1; 0.92 in the series with PC13/NR13.

The values above are taken from patent US20070141619A1, “DRUG RESISTANCE-ASSOCIATED GENE AND USE THEREOF” (BANYU PHARMACEUTICAL CO., Ltd., priority 2000, published 2007).
